Laboratory results from US9938265B2, “1,3,4-thiadiazole compounds and their use in treating cancer” (AstraZeneca AB, priority 2015, dated 2018).
Where two headings read alike, the source gives them in different places.

How the values were obtained:
[1] = target: GLS1 (Homo sapiens (Human), UniProt O94925); experiment: GLS Enzyme Potency Assay (Glutamate Oxidase/AmplexRed coupled assay); type: biochemical
Excerpt: (§1) The following assays were used to measure the effects of the compounds described herein: a) GLS Enzyme Potency Assay; b) GLS Cell Potency Assay; c) GLS Cell Proliferation Assay. During the description of the assays, generally: • i. The following abbreviations have been used: CO2=Carbon dioxide; DMEM=Dulbecco's Modified Eagle Medium; DMSO=Dimethyl sulphoxide; EDTA=Ethylenediaminetetraacetic acid; EGTA=Ethylene glycol tetraacetic acid; FCS=Foetal calf serum; h=Hour(s); NBS=Non-binding surface; SDS=Sodium dodecyl sulphate; TRIS=Tris(Hydroxymethyl)aminomethane. • ii. IC50 values were calculated using a smart fitting model in Genedata.
Assay a): GLS Enzyme Potency Assay
A Glutamate Oxidase/AmplexRed coupled assay was used to measure the ability of compounds to bind to and inhibit the activity of GLS1 in vitro. […] GLS1 was diluted to 2× working concentration and incubated at room temperature to allow the tetrameric/dimeric forms to reach steady state. Assay measurements were performed in buffer comprising 50 mM TRIS pH 7.8, 100 mM NaPO4, pH 7.8, 0.001% v/v Tween20. Purified recombinant GLS1 protein was diluted in assay buffer to 12 nM and pre-incubated at room temperature for 30 minutes. […] DMSO concentration was maintained at 2% by back filling with DMSO solution. 3 μL of diluted GLS1 protein (12 nM) was then dispensed into each well using a BioRaptr automated dispenser (Beckman-Coulter) and incubated for 15 minutes at room temperature. 3 μL of 100 mM glutamine diluted in assay buffer was then added and the reaction incubated at room temperature for 60 minutes. […] An artefact version of the assay where the 6His tagged GLS protein and glutamine were replaced with assay buffer was also used to rule out non specific effects on the assay components.

[2] = target: cellular GLS activity (Homo sapiens (Human), UniProt O94925); experiment: GLS Cell Potency Assay (PC3 coupled assay measuring cellular glutamate depletion); type: cell-based; details: PC3 cells, 6 h incubation, glutamate depletion; read-out: Assay b) GLS cell MOA Mean IC50
Excerpt: as §1
Assay b): GLS Cell Potency Assay
Compounds were assessed for their potential to inhibit cellular GLS activity by use of a PC3 coupled assay measuring cellular glutamate depletion. […] DMSO concentration was maintained at 0.3% by back filling with DMSO solution. PC3 cells were grown in phenol free DMEM, 10% dialyzed FCS, 2 mM glutamine and following dispersal by trypsinisation were plated at 5.6×10^3 cells per well in 40 μl of growth medium directly into the 384 well assay plates containing dispensed compound. After incubation for 6 h at 37° C., 5% CO2 growth media was aspirated and cells lysed in 15 μl of buffer containing 10 mM TRIS pH7.4, 100 mM NaCl, 1 mM EDTA, 1 mM EGTA, 1 mM NaF, 20 mM Na4P2O7, 2 mM Na3VO4, 1% Triton X-100, 10% glycerol, 0.1% SDS and 0.5% deoxycholate.

[3] = tested on: NCI-H1703 cells; experiment: GLS Cell Proliferation Assay (NCI-H1703 cell proliferation); type: cell-based
Excerpt: as §1
Assay c): GLS Cell Proliferation Assay
The ability of compounds to inhibit cell growth was measured using a 384 well plate NCI-H1703 cell proliferation assay. NCI-H1703 cells were grown in phenol red free RPMI1640, 10% FCS and 2 mM glutamine and seeded at a density of 750 cells per well in 40 μl of growth medium into clear-bottom 384 well assay plates (Corning product code 3712) and incubated for 24 h at 37° C., 5% CO2. Test compounds were prepared by dilution in 100% DMSO to give the correct dose range for 12 point concentration response and an appropriate volume (5-120 nl) dispensed directly into the assay plates containing plated cells. DMSO concentration was maintained at 0.3% by back filling with DMSO solution. Plates were incubated for 5 days at 37° C., 5% CO2, Sytox Green and Saponin added to final concentration of 2 μM and 0.25% respectively and incubated for 6 h prior to analysis. Plates were read on an Acumen eX3 (TTP Labtech) using 488 nm excitation and FITC filter set (500-530 nm) for emission. IC50 values were calculated by curve fitting to max inhibition of day zero growth using GeneData software analysis.

[4] = NCI-H1703 cells, 5 days; read-out: Assay c) Prolif Mean IC50
[5] = 6His tagged GLS protein (amino acids 63-669), glutamine substrate; read-out: Assay a) enz IC50
[6] = Homo sapiens, NCI-H1703, 120 h, NCI-H1703 cells, 5 days; read-out: Assay c) Prolif Mean IC50

Sequence of cellular GLS activity (O94925 73-669): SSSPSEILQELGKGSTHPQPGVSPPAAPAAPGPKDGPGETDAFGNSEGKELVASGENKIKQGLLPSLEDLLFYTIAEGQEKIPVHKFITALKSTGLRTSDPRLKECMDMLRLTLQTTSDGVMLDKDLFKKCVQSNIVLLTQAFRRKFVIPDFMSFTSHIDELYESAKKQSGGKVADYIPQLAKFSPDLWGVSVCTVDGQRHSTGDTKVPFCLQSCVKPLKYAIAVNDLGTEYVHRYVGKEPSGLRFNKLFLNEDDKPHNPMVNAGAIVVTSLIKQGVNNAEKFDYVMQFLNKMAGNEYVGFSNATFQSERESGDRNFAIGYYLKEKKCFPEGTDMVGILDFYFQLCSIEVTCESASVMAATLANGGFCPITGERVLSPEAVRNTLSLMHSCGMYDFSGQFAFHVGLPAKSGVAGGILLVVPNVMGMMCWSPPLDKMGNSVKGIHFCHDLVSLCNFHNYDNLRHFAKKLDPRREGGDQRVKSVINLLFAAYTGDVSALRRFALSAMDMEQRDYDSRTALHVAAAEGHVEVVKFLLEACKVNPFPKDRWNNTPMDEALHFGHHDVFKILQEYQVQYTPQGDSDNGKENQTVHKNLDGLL
Sequence of GLS1 (O94925 63-669): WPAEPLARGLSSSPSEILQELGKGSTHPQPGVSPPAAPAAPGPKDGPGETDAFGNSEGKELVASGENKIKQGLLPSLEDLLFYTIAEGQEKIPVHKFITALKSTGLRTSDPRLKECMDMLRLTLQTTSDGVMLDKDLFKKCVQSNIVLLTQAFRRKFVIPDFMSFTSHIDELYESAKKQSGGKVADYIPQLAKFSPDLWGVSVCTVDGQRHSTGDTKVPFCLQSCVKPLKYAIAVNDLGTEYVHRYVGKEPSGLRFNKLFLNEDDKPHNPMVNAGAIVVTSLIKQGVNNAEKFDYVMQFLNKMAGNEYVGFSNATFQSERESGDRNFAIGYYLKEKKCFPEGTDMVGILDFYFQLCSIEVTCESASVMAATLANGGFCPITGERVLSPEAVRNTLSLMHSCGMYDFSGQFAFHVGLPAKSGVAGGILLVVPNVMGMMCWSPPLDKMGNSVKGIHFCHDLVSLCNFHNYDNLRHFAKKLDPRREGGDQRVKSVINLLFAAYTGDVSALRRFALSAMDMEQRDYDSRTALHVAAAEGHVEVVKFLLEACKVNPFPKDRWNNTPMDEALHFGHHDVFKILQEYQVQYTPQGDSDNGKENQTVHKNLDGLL

SMILES | IC50 ([1]; read-out: Assay a) enz IC50) | IC50 [2] | IC50 [3, 4] | IC50 [1, 5] | IC50 [3, 6]
COc1cc([C@H](OC)C(=O)Nc2nnc(N[C@@H]3CCN(c4ccc(C)nn4)C3)s2)ccc1F (single isomer, unassigned) [6(b)] |  |  | 0.926 µM |  | 
CO[C@H](C(=O)Nc1nnc(N[C@@H]2CCN(c3ccc(C)nn3)C2)s1)c1cccc(OC(F)(F)F)c1 (single isomer, unassigned) [7(b)] | 0.334 µM | 0.0127 µM | 0.0256 µM |  | 
CO[C@H](C(=O)Nc1nnc(N[C@@H]2CCN(c3ccc(C)nn3)C2)s1)c1cccc(OC(F)F)c1 (single isomer, unassigned) [8(a)] |  | 0.0013 µM | 0.00548 µM | 0.0994 µM | 
COc1ccc([C@H](OC)C(=O)Nc2nnc(N[C@@H]3CCN(c4cc(C)cnn4)C3)s2)cc1 (single isomer, unassigned) [33(b)] |  | 0.00235 µM | 0.0379 µM | 0.0799 µM | 
CCO[C@H](C(=O)Nc1nnc(N[C@@H]2CCN(c3ccc(C)nn3)C2)s1)c1cccc(OC)c1 (single isomer, unassigned) [Example 4(a)] |  | 0.000457 µM | 0.00664 µM | 0.0792 µM | 
COc1cc([C@H](OC)C(=O)Nc2nnc(N[C@@H]3CCN(c4ccc(C)nn4)C3)s2)ccc1F (single isomer, unassigned) [Example 6(a)] |  |  | 0.0209 µM |  | 
COc1ccc([C@H](OC)C(=O)Nc2nnc(N[C@@H]3CCN(c4cc(Cl)cnn4)C3)s2)cc1 (single isomer, unassigned) [Example 11(a)] |  |  | 0.0544 µM | 0.0159 µM | 
CCOC(C(=O)Nc1nnc(N[C@@H]2CCN(c3ccc(C)nn3)C2)s1)c1ccc(OC)cc1 (single isomer, unassigned) [Example 15] |  | 0.0348 µM | 0.567 µM | 0.277 µM | 
COC(C(=O)Nc1nnc(N[C@@H]2CCN(c3ccc(F)nn3)C2)s1)c1ccc(F)cc1 (single isomer, unassigned) [Example 19] |  | 0.0047 µM | 0.0719 µM | 0.0557 µM | 
COc1ccc(C(OC)C(=O)Nc2nnc(N[C@@H]3CCN(c4ccc(F)nn4)C3)s2)cc1 (single isomer, unassigned) [Example 21] |  | 0.0537 µM | 0.93 µM | 0.223 µM | 
COc1cc(C(OC)C(=O)Nc2nnc(N[C@@H]3CCN(c4ccc(F)nn4)C3)s2)ccc1F (single isomer, unassigned) [Example 24] |  | 0.00101 µM | 0.0116 µM | 0.0713 µM | 
COc1cccc([C@H](OC)C(=O)Nc2nnc(N[C@@H]3CCN(c4ccc(F)nn4)C3)s2)c1 [Example 3, (2S)-N-[5-[[(3R)-1-(6-Fluoropyridazin-3-yl)pyrrolidin-3-yl]amino]-1,3,4-thiadiazol-2-yl]-2-methoxy-2-(3-methoxyphenyl)acetamide] |  |  |  |  | 0.00362 µM
CO[C@H](C(=O)Nc1nnc(N[C@@H]2CCN(c3ccc(F)nn3)C2)s1)c1cccc(OC(F)F)c1 [Example 9(a), (2S)-2-[3-(difluoromethoxy)phenyl]-N-[5-[[(3R)-1-(6-fluoropyridazin-3-yl)pyrrolidin-3-yl]amino]-1,3,4-thiadiazol-2-yl]-2-methoxy-acetamide] |  |  |  |  | 0.00309 µM
COc1ccc(C(OC)C(=O)Nc2nnc(N[C@@H]3CCN(c4ccc(C)nn4)C3)s2)cc1 (stereo partly drawn) [Example 29, 2-methoxy-2-(4-methoxyphenyl)-N-[5-[[(3R)-1-(6-methylpyridazin-3-yl)pyrrolidin-3-yl]amino]-1,3,4-thiadiazol-2-yl]acetamide] |  |  | 0.586 µM | 1.28 µM | 

Now from value to compound:

IC50 ([1]; read-out: Assay a) enz IC50) | IC50 [2] | IC50 [3, 4] | IC50 [1, 5] | IC50 [3, 6] | SMILES
0.29 µM | 0.0431 µM | 0.389 µM |  |  | CCO[C@H](C(=O)Nc1nnc(N[C@@H]2CCN(c3ccc(C)nn3)C2)s1)c1cccc(OC)c1 (single isomer, unassigned) [4(b)]
0.975 µM |  | 1.02 µM |  |  | CO[C@H](C(=O)Nc1nnc(N[C@@H]2CCN(c3ccc(C)nn3)C2)s1)c1ccc(F)cc1 (single isomer, unassigned) [5(b)]
 | 0.0221 µM | 0.117 µM | 0.643 µM |  | CO[C@H](C(=O)Nc1nnc(N[C@@H]2CCN(c3ccc(C)nn3)C2)s1)c1cccc(OC(F)F)c1 (single isomer, unassigned) [8(b)]
 |  | 0.204 µM |  |  | CO[C@H](C(=O)Nc1nnc(N[C@@H]2CCN(c3cc(C)cnn3)C2)s1)c1ccc(F)cc1 (single isomer, unassigned) [10(b)]
0.0848 µM | 0.0105 µM | 0.129 µM |  |  | COc1ccc([C@H](OC)C(=O)Nc2nnc(N[C@@H]3CCN(c4cc(Cl)cnn4)C3)s2)cc1 (single isomer, unassigned) [11(b)]
 | 0.000566 µM | 0.00459 µM | 0.0554 µM |  | COc1cccc([C@H](OC)C(=O)Nc2nnc(N[C@@H]3CCN(c4ccc(C)nn4)C3)s2)c1 (single isomer, unassigned) [Example 1(a)]
0.406 µM | 0.137 µM | 0.454 µM |  |  | COc1cccc([C@H](OC)C(=O)Nc2nnc(N[C@@H]3CCN(c4ccc(C)nn4)C3)s2)c1 (single isomer, unassigned) [Example 1(b)]
 | 0.00278 µM | 0.0441 µM | 0.155 µM |  | CO[C@H](C(=O)Nc1nnc(N[C@@H]2CCN(c3ccc(C)nn3)C2)s1)c1ccc(F)cc1 (single isomer, unassigned) [Example 5(a)]
 | 0.000556 µM | 0.00308 µM | 0.0952 µM |  | CO[C@H](C(=O)Nc1nnc(N[C@@H]2CCN(c3ccc(C)nn3)C2)s1)c1cccc(OC(F)(F)F)c1 (single isomer, unassigned) [Example 7(a)]
 |  | 1.21 µM |  |  | CO[C@H](C(=O)Nc1nnc(N[C@@H]2CCN(c3cc(C)cnn3)C2)s1)c1ccc(F)cc1 (single isomer, unassigned) [Example 10(a)]
 | 0.00274 µM | 0.055 µM | 0.0809 µM |  | CCOC(C(=O)Nc1nnc(N[C@@H]2CCN(c3ccc(C)nn3)C2)s1)c1ccc(OC)cc1 (single isomer, unassigned) [Example 16]
 | 0.000251 µM | 0.00174 µM | 0.0243 µM |  | COC(C(=O)Nc1nnc(N[C@@H]2CCN(c3ccc(F)nn3)C2)s1)c1cccc(OC(F)(F)F)c1 (single isomer, unassigned) [Example 17]
 | 0.00491 µM | 0.0168 µM | 0.0653 µM |  | COC(C(=O)Nc1nnc(N[C@@H]2CCN(c3ccc(F)nn3)C2)s1)c1cccc(OC(F)(F)F)c1 (single isomer, unassigned) [Example 18]
 | 0.0795 µM | 1.27 µM | 0.323 µM |  | COC(C(=O)Nc1nnc(N[C@@H]2CCN(c3ccc(F)nn3)C2)s1)c1ccc(F)cc1 (single isomer, unassigned) [Example 20]
 | 0.00245 µM | 0.0369 µM | 0.0189 µM |  | COc1ccc(C(OC)C(=O)Nc2nnc(N[C@@H]3CCN(c4ccc(F)nn4)C3)s2)cc1 (single isomer, unassigned) [Example 22]
 | 0.197 µM | 0.106 µM | 0.265 µM |  | COc1cc(C(OC)C(=O)Nc2nnc(N[C@@H]3CCN(c4ccc(F)nn4)C3)s2)ccc1F (single isomer, unassigned) [Example 23]
 |  |  |  | 0.469 µM | CO[C@@H](C(=O)Nc1nnc(N[C@@H]2CCN(c3ccc(F)nn3)C2)s1)c1cccc(OC(F)F)c1 [9(b), (2R)-2-[3-(difluoromethoxy)phenyl]-N-[5-[[(3R)-1-(6-fluoropyridazin-3-yl)pyrrolidin-3-yl]amino]-1,3,4-thiadiazol-2-yl]-2-methoxy-acetamide]
